Like-named read-outs stand apart in the source and are kept apart here.
What was measured:
[1] = system: A431 (squamous skin) cancer cell line; assay: MTT antiproliferative assay, A431; assay type: cell-based; conditions: for IC50: Homo sapiens, A-431, 72 h, read-out: IC50 ± SE, A431; for SI (selectivity index), A431: IC50 of RPE1 relative to that of A431
[2] = system: HCT116 (colon) cancer cell line; assay: MTT antiproliferative assay, HCT116; assay type: cell-based; conditions: for IC50: Homo sapiens, HCT-116, 72 h, read-out: IC50 ± SE, HCT116; for SI (selectivity index), HCT116: IC50 of RPE1 relative to that of HCT116
[3] = system: RPE1 (normal human immortalized retinal pigment epithelial cell line); assay: MTT assay against normal RPE1 cells; assay type: cell-based; conditions: RPE-1, read-out: IC50 ± SE, RPE1
VEGFR-2 [4] = biological target: T1, VEGFR-2 (Homo sapiens, UniProt P35968); assay: VEGFR-2 Western blot in HCT116; assay type: cell-based; conditions: for VEGFR2 HCT116 % Inhibition: Western blot at MTT-IC50; for VEGFR2 HCT116 RQ (relative quantification): Western blot at MTT-IC50, control RQ 3.817
T1 sequence (P35968 20-1356): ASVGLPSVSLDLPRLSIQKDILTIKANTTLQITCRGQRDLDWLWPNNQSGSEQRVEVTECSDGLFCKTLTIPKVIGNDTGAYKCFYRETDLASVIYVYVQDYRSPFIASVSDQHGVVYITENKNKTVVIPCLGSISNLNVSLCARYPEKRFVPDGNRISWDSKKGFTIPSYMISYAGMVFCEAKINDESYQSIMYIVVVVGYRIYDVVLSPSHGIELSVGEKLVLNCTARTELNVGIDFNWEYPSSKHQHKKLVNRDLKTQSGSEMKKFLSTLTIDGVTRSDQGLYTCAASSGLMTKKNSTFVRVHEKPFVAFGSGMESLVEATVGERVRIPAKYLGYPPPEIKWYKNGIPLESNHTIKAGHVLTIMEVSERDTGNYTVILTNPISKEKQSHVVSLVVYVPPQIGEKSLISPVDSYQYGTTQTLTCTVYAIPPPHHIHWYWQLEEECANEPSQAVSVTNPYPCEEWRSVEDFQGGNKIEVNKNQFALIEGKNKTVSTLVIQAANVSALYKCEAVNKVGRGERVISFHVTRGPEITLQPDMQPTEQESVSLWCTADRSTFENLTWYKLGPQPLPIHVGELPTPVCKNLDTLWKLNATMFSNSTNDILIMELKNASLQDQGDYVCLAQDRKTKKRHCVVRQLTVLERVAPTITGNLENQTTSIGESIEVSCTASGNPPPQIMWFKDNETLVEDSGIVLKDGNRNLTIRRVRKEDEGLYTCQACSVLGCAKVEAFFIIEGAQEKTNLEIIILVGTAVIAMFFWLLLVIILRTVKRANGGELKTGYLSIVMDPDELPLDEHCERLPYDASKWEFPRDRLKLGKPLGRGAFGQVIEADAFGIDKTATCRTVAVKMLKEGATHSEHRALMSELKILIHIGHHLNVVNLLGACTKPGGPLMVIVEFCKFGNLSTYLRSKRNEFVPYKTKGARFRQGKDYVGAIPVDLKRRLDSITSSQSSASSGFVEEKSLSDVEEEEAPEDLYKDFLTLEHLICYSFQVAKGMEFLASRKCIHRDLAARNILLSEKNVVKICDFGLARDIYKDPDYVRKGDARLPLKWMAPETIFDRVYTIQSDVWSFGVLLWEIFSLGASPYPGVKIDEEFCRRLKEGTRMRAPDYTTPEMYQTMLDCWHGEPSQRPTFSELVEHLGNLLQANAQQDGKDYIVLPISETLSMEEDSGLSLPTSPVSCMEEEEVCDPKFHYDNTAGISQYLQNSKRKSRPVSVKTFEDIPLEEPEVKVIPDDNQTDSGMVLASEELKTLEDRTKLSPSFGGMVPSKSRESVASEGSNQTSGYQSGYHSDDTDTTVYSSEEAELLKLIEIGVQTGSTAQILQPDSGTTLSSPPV

[5] = system: SARS-CoV-2 (hCoV-19/Egypt/NRC-03/2020); conditions: SARS-CoV-2 / VERO-E6
COX-2 = biological target: T2, COX-2 (Homo sapiens, UniProt P35354); assay: COX-2 inhibitor screening kit; assay type: biochemical
T2 sequence (P35354 18-604): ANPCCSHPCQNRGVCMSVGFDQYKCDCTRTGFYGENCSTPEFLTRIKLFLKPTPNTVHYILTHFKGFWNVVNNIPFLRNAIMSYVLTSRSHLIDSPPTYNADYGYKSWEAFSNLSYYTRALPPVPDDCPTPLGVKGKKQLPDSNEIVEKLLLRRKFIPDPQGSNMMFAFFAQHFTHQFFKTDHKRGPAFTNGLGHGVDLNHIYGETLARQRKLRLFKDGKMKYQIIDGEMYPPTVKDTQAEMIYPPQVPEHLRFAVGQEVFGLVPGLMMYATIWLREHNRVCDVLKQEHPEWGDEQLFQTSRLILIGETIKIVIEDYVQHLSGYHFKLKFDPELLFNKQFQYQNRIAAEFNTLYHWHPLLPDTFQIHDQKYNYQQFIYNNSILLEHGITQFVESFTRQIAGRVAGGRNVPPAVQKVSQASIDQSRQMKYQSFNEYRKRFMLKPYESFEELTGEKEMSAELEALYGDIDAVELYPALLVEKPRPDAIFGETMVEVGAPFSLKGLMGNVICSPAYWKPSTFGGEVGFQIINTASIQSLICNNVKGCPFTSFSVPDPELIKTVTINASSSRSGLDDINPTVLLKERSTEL

EGFR [6] = biological target: T3, EGFR (Homo sapiens, UniProt P00533); assay: EGFR Western blot in MCF7; assay type: cell-based; conditions: for EGFR MCF7 % Inhibition: Western blot at MTT-IC50; for EGFR MCF7 RQ (relative quantification): Western blot at MTT-IC50, control RQ 4.226
T3 sequence (P00533 25-1210): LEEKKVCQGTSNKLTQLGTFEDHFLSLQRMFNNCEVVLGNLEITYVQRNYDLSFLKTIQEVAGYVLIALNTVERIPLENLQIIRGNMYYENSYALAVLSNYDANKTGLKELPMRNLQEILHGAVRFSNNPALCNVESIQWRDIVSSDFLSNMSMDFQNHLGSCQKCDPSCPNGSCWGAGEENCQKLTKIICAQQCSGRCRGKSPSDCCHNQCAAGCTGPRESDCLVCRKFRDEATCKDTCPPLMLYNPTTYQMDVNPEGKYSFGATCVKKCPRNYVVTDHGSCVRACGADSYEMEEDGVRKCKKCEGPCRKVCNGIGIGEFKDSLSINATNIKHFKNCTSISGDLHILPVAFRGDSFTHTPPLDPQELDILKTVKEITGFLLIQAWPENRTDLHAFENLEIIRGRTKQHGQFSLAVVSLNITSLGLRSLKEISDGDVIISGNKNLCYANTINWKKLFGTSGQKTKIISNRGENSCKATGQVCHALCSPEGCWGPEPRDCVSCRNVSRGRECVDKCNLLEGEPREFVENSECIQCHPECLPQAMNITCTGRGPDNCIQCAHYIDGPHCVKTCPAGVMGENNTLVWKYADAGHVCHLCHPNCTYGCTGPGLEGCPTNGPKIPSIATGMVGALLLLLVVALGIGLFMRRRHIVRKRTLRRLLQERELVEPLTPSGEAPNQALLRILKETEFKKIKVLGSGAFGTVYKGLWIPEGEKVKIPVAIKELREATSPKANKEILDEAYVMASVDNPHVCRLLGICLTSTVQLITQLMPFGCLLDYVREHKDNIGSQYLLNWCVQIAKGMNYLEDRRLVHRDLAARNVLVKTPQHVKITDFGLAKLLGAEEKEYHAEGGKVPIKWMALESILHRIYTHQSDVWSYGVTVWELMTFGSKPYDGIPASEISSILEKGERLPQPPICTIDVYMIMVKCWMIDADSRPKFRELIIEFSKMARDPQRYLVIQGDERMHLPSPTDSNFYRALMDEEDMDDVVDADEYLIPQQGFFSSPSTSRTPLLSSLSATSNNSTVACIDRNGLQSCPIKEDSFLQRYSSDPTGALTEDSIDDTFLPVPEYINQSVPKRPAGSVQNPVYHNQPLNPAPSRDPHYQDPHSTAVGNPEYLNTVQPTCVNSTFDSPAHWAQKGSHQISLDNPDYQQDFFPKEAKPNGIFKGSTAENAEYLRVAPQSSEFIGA

EGFR [7] = biological target: T3, EGFR; assay: EGFR Western blot in HCT116; assay type: cell-based; conditions: for EGFR HCT116 % Inhibition: Western blot at MTT-IC50; for EGFR HCT116 RQ (relative quantification): Western blot at MTT-IC50, control RQ 4.0382
COX-1 = biological target: T4, COX-1 (Ovis aries, UniProt P05979); assay: COX-1 inhibitor screening kit; assay type: biochemical
T4 sequence (P05979 25-600): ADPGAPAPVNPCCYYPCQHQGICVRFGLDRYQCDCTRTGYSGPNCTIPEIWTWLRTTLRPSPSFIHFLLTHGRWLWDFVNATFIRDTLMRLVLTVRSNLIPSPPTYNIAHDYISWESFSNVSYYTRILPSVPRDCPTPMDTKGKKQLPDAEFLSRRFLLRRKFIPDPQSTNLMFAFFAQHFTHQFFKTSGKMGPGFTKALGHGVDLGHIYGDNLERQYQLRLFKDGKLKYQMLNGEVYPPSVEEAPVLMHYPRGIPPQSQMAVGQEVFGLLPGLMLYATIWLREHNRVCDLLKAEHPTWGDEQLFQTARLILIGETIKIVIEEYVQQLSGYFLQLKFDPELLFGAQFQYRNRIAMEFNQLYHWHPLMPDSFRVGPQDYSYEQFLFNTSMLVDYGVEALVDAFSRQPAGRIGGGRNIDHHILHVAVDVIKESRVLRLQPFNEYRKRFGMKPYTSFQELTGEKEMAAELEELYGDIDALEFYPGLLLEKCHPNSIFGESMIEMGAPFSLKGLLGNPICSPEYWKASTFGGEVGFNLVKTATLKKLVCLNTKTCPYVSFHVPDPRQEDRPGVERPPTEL

VEGFR-2 [8] = biological target: T1, VEGFR-2; assay: VEGFR-2 Western blot in MCF7; assay type: cell-based; conditions: for VEGFR2 MCF7 % Inhibition: Western blot at MTT-IC50; for VEGFR2 MCF7 RQ (relative quantification): Western blot at MTT-IC50, control RQ 3.725
[9] = system: MCF7 (breast) cancer cell line; assay: MTT antiproliferative assay, MCF7; assay type: cell-based; conditions: for IC50: Homo sapiens, MCF7, 72 h, read-out: IC50 ± SE, MCF7; for SI (selectivity index), MCF7: IC50 of RPE1 relative to that of MCF7

COc1ccc(/C=C2\CN(C(=O)c3ccccc3OC(C)=O)C/C(=C\c3ccc(OC)cc3)C2=O)cc1 [Compound 5f, 2-[3,5-Bis((E)-4-methoxybenzylidene)-4-oxopiperidine-1-carbonyl]phenyl acetate]
IC50 [1]: 6.04 ± 0.62 µM | SI (selectivity index), A431 [1]: 1.6 | IC50 [2]: 6.08 ± 0.49 µM | SI (selectivity index), HCT116 [2]: 1.63 | IC50 [3]: 9.89 ± 0.66 µM | VEGFR2 HCT116 % Inhibition (VEGFR-2 [4]): 64.1% | VEGFR2 HCT116 RQ (relative quantification) (VEGFR-2 [4]): 1.37 | SI = CC50/IC50 [5]: 1.2 | IC50 (COX-2): 0.315 µM | SI = IC50(COX-1)/IC50(COX-2) (COX-2): 0.467 | EGFR MCF7 % Inhibition (EGFR [6]): 76.3% | EGFR MCF7 RQ (relative quantification) (EGFR [6]): 1 | EGFR HCT116 % Inhibition (EGFR [7]): 62.5% | EGFR HCT116 RQ (relative quantification) (EGFR [7]): 1.516 | IC50 (COX-1): 0.147 µM | VEGFR2 MCF7 % Inhibition (VEGFR-2 [8]): 58.1% | VEGFR2 MCF7 RQ (relative quantification) (VEGFR-2 [8]): 1.56 | IC50 [9]: 5.38 ± 0.51 µM | SI (selectivity index), MCF7 [9]: 1.84

COc1ccc(/C=C2\CN(C(=O)c3cc(Cl)ccc3OC(C)=O)C/C(=C\c3ccc(OC)cc3)C2=O)cc1 [Compound 5m, 2-[3,5-Bis((E)-4-methoxybenzylidene)-4-oxopiperidine-1-carbonyl]-4-chlorophenyl acetate]
IC50 [1]: 3.81 ± 0.29 µM | SI (selectivity index), A431 [1]: 1.9 | IC50 [2]: 5.94 ± 0.46 µM | SI (selectivity index), HCT116 [2]: 1.22 | IC50 [3]: 7.23 ± 0.51 µM | VEGFR2 HCT116 % Inhibition (VEGFR-2 [4]): 70.4% | VEGFR2 HCT116 RQ (relative quantification) (VEGFR-2 [4]): 1.13 | SI = CC50/IC50 [5]: 138.7 | IC50 (COX-2): 0.319 µM | SI = IC50(COX-1)/IC50(COX-2) (COX-2): 0.452–0.467 | SI = IC50(COX-1)/IC50(COX-2) (COX-2; listed as 5 m): 0.458 | EGFR MCF7 % Inhibition (EGFR [6]): 62.4% | EGFR MCF7 RQ (relative quantification) (EGFR [6]): 1.59 | EGFR HCT116 % Inhibition (EGFR [7]): 68.5% | EGFR HCT116 RQ (relative quantification) (EGFR [7]): 1.273 | IC50 (COX-1): 0.146 µM | VEGFR2 MCF7 % Inhibition (VEGFR-2 [8]): 47.2% | VEGFR2 MCF7 RQ (relative quantification) (VEGFR-2 [8]): 1.966 | IC50 [9]: 5.06 ± 0.45 µM | SI (selectivity index), MCF7 [9]: 1.43

CC(=O)Oc1ccc(Cl)cc1C(=O)N1C/C(=C\c2ccc(Br)cc2)C(=O)/C(=C/c2ccc(Br)cc2)C1 [Compound 5l, 2-[3,5-Bis((E)-4-bromobenzylidene)-4-oxopiperidine-1-carbonyl]-4-chlorophenyl acetate]
IC50 [1]: 0.667 ± 0.07 µM | SI (selectivity index), A431 [1]: 10.8 | IC50 [2]: 1.15 ± 0.13 µM | SI (selectivity index), HCT116 [2]: 6.27 | IC50 [3]: 7.23 ± 0.49 µM | VEGFR2 HCT116 % Inhibition (VEGFR-2 [4]): 76.4% | VEGFR2 HCT116 RQ (relative quantification) (VEGFR-2 [4]): 0.9 | SI = CC50/IC50 [5]: 11.1 | IC50 (COX-2): 1.01 µM | SI = IC50(COX-1)/IC50(COX-2) (COX-2): 0.582 | EGFR MCF7 % Inhibition (EGFR [6]): 66.9% | EGFR MCF7 RQ (relative quantification) (EGFR [6]): 1.4 | EGFR HCT116 % Inhibition (EGFR [7]): 66.9% | EGFR HCT116 RQ (relative quantification) (EGFR [7]): 1.336 | IC50 (COX-1): 0.59 µM | VEGFR2 MCF7 % Inhibition (VEGFR-2 [8]): 70.5% | VEGFR2 MCF7 RQ (relative quantification) (VEGFR-2 [8]): 1.1 | IC50 [9]: 4.15 ± 0.37 µM | SI (selectivity index), MCF7 [9]: 1.74

CCN(CCO)CCCC(C)Nc1ccnc2cc(Cl)ccc12 (stereo not drawn) [Hydroxychloroquine, reference compound]
SI = CC50/IC50 [5]: 9.7

CC(=O)Oc1ccccc1C(=O)N1C/C(=C\c2ccccc2)C(=O)/C(=C/c2ccccc2)C1 [Compound 5a, 2-[3,5-Di((E)-benzylidene)-4-oxopiperidine-1-carbonyl]phenyl acetate]
IC50 [1]: 4.49 ± 0.41 µM | SI (selectivity index), A431 [1]: 2.4 | IC50 [2]: 4.72 ± 0.42 µM | SI (selectivity index), HCT116 [2]: 2.25 | IC50 [3]: 10.6 ± 1.04 µM | VEGFR2 HCT116 % Inhibition (VEGFR-2 [4]): 67.5% | VEGFR2 HCT116 RQ (relative quantification) (VEGFR-2 [4]): 1.24 | SI = CC50/IC50 [5]: 18.5 | IC50 (COX-2): 1.55 µM | SI = IC50(COX-1)/IC50(COX-2) (COX-2): 0.161 | EGFR MCF7 % Inhibition (EGFR [6]): 90.3% | EGFR MCF7 RQ (relative quantification) (EGFR [6]): 0.41 | EGFR HCT116 % Inhibition (EGFR [7]): 69.3% | EGFR HCT116 RQ (relative quantification) (EGFR [7]): 1.24 | IC50 (COX-1): 0.249 µM | VEGFR2 MCF7 % Inhibition (VEGFR-2 [8]): 64.6% | VEGFR2 MCF7 RQ (relative quantification) (VEGFR-2 [8]): 1.32 | IC50 [9]: 4.74 ± 0.38 µM | SI (selectivity index), MCF7 [9]: 2.25

CC(=O)Oc1ccc(Cl)cc1C(=O)N1C/C(=C\c2ccc(Cl)cc2)C(=O)/C(=C/c2ccc(Cl)cc2)C1 [Compound 5k, 2-[3,5-Bis((E)-4-chlorobenzylidene)-4-oxopiperidine-1-carbonyl]-4-chlorophenyl acetate]
IC50 [1]: 0.417 ± 0.03 µM | SI (selectivity index), A431 [1]: 18.6 | IC50 [2]: 1.97 ± 0.17 µM | SI (selectivity index), HCT116 [2]: 3.94 | IC50 [3]: 7.77 ± 0.56 µM | VEGFR2 HCT116 % Inhibition (VEGFR-2 [4]): 68.6% | VEGFR2 HCT116 RQ (relative quantification) (VEGFR-2 [4]): 1.2 | SI = CC50/IC50 [5]: 10.3 | IC50 (COX-2): 0.676 µM | SI = IC50(COX-1)/IC50(COX-2) (COX-2): 0.578 | EGFR MCF7 % Inhibition (EGFR [6]): 69.0% | EGFR MCF7 RQ (relative quantification) (EGFR [6]): 1.31 | EGFR HCT116 % Inhibition (EGFR [7]): 63.4% | EGFR HCT116 RQ (relative quantification) (EGFR [7]): 1.479 | IC50 (COX-1): 0.391 µM | VEGFR2 MCF7 % Inhibition (VEGFR-2 [8]): 59.7% | VEGFR2 MCF7 RQ (relative quantification) (VEGFR-2 [8]): 1.5 | IC50 [9]: 4.07 ± 0.33 µM | SI (selectivity index), MCF7 [9]: 1.91

O=c1[nH]cc(F)c(=O)[nH]1 [Compound 5-FU, 5-fluorouracil, reference compound]
VEGFR2 HCT116 % Inhibition (VEGFR-2 [4]): 75.4% | EGFR MCF7 % Inhibition (EGFR [6]): 85.8% | EGFR HCT116 % Inhibition (EGFR [7]): 81.2% | VEGFR2 MCF7 % Inhibition (VEGFR-2 [8]): 67.2%

CCN(CC)CCCC(C)Nc1ccnc2cc(Cl)ccc12 (stereo not drawn) [Chloroquine, reference compound]
SI = CC50/IC50 [5]: 15.1

Source: PMC8566089 (Bioorganic Chemistry, 2021)
